Measurements from US20240269304A1, “BCL-XL INHIBITOR ANTIBODY-DRUG CONJUGATES AND METHODS OF USE THEREOF” (Novartis AG, priority 2020, published 2024).
Like-named read-outs stand apart in the source and are kept apart here.

Legend:
ALL-SIL cells = assay: CellTiterGlo (CTG) cell viability, 72 h, ALL-SIL (Example 8); format: cell-based
Experimental: ALL-SIL cells were cultivated in RPMI supplemented with 20% heat inactivated fetal bovine serum, penicillin (100 IU/ml), streptomycin (100 μg/ml) and L-glutamine (2 mM). Cell lines were cultured at 37° C. in a humidified atmosphere containing 5% CO2. Cells were seeded in 96 well clear bottom plates (96 well clear-bottom, white, Corning reference 3903) and exposed to the payloads or ADCs for 72 h (serially diluted; 9 concentrations each, triplicates). Effects of payloads or ADCs on cell viability were assessed after 3 days of incubation at 37° C./5% CO2 by quantification of cellular ATP levels using CellTiterGlo at 75 μL reagent/well. All the conditions were tested in triplicates. Luminescence was quantified on a multipurpose plate reader. IC50s were calculated using standard four-parametric curve fitting. […] Each experiment was performed at least twice, with results being reproducible.

DND-41 cells = assay: CellTiterGlo (CTG) cell viability, 72 h, DND-41 (Example 8); format: cell-based
Experimental: DND-41 cells were cultivated in RPMI supplemented with 10% heat inactivated fetal bovine serum, penicillin (100 IU/ml), streptomycin (100 μg/ml) and L-glutamine (2 mM). Cell lines were cultured at 37° C. in a humidified atmosphere containing 5% CO2. […] Effects of payloads or ADCs on cell viability were assessed after 3 days of incubation at 37° C./5% CO2 by quantification of cellular ATP levels using CellTiterGlo at 75 μL reagent/well. All the conditions were tested in triplicates. Luminescence was quantified on a multipurpose plate reader. IC50s were calculated using standard four-parametric curve fitting.

H1650 cells = assay: CellTiterGlo (CTG) cell viability, 3D, 120 h, H1650 (Example 8); format: cell-based, human
[1] = experiment n1, read-out: ALLSIL CTG 72 h IC50 nM n1
[2] = experiment n2, read-out: ALLSIL CTG 72 h IC50 nM n2
[3] = mean of n1 and n2, read-out: ALLSIL CTG 72 h IC50 nM Mean of n1 and n2
[4] = DND41, experiment n1, read-out: DND41 CTG 72 h IC50 nM n1
[5] = DND41, experiment n2, read-out: DND41 CTG 72 h IC50 nM n2
[6] = DND41, mean of n1 and n2, read-out: DND41 CTG 72 h IC50 nM Mean of n1 and n2
[7] = Homo sapiens, NCI-H1650, H1650 3D, experiment n1, read-out: H1650 3D CTG IC50 n1
[8] = Homo sapiens, NCI-H1650, H1650 3D, experiment n2, read-out: H1650 3D CTG IC50 n2
[9] = Homo sapiens, NCI-H1650, H1650 3D, mean of n1 and n2, read-out: H1650 3D CTG IC50 Mean of n1 and n2

| SMILES | IC50 (ALL-SIL cells; [1]) [nM] | IC50 (ALL-SIL cells; [2]) [nM] | IC50 (ALL-SIL cells; [3]) [nM] | IC50 (DND-41 cells; [4]) [nM] | IC50 (DND-41 cells; [5]) [nM] | IC50 (DND-41 cells; [6]) [nM] | IC50 (H1650 cells; [7]) [nM] | IC50 (H1650 cells; [8]) [nM] | IC50 (H1650 cells; [9]) [nM] | ALLSIL CTG 72 h IC50 nM n1 (ALL-SIL cells; experiment n1) | IC50 (H1650 cells; H1650 3D, experiment n1, read-out: H1650 3D CTG IC50 n1) [nM] | IC50 (H1650 cells; H1650 3D, experiment n2, read-out: H1650 3D CTG IC50 n2) [nM] | IC50 (H1650 cells; H1650 3D, mean of n1 and n2, read-out: H1650 3D CTG IC50 Mean of n1 and n2) [nM] |
| --- | --- | --- | --- | --- | --- | --- | --- | --- | --- | --- | --- | --- | --- |
| Cc1c(Nc2nc3ccccc3s2)nnc2c1CCCN2c1nc(C(=O)O)c(CCCOc2ccc(C#CCN(C)C)cc2F)s1 [P1, 2-[3-(1,3-Benzothiazol-2-ylamino)-4-methyl-6,7-dihydro-5H-pyrido[2,3-c]pyridazin-8-yl]-5-[3-[4-[3-(dimethylamino)prop-1-ynyl]-2-fluoro-phenoxy]propyl]thiazole-4-carboxylic acid] | 0.38 | 0.14 | 0.26 | 1.3 | 0.26 | 0.78 | 0.51 | 1.28 | 0.9 | – | – | – | – |
| Cc1c(Nc2nc3ccccc3s2)nnc2c1CCCN2c1nc(C(=O)O)c(CCCOc2ccc(C#CCN3CCNCC3)cc2F)s1 [P17, 2-[3-(1,3-Benzothiazol-2-ylamino)-4-methyl-6,7-dihydro-5H-pyrido[2,3-c]pyridazin-8-yl]-5-[3-[2-fluoro-4-(3-piperazin-1-ylprop-1-ynyl)phenoxy]propyl]thiazole-4-carboxylic acid] | 0.13 | 0.26 | 0.2 | 0.4 | 0.7 | 0.55 | 3.15 | 5.3 | 4.23 | – | – | – | – |
| CNCC#Cc1ccc(OCCCc2sc(N(CCCC(O)CO)c3cc(C)c(Nc4nc5ccccc5s4)nn3)nc2C(=O)O)c(F)c1 (stereo not drawn) [P46, 2-[[6-(1,3-Benzothiazol-2-ylamino)-5-methyl-pyridazin-3-yl]-(4,5-dihydroxypentyl)amino]-5-[3-[2-fluoro-4-[3-(methylamino)prop-1-ynyl]phenoxy]propyl]thiazole-4-carboxylic acid] | 62.2 | 50 | 56.1 | 212 | 220 | 216 | – | – | – | – | – | – | – |
| Cc1c(Nc2nc3ccccc3s2)nnc2c1CCCN2c1ccc(-c2cnn(C[C@]34C[C@]5(C)C[C@](C)(C3)C[C@@](OCCNCC[C@H](O)CO)(C5)C4)c2C)c(C(=O)O)n1 [P19, 6-{3-[(1,3-benzothiazol-2-yl)amino]-4-methyl-6,7-dihydropyrido[2,3-c]pyridazin-8(5H)-yl}-3-(1-{[3-(2-{[(3S)-3,4-dihydroxybutyl]amino}ethoxy)-5,7-dimethyladamantan-1-yl]methyl}-5-methyl-1H-pyrazol-4-yl)pyridine-2-carboxylic acid] | 4.02 | 3.5 | 3.76 | 10.8 | 7.2 | 9 | 2.89 | 1.43 | 2.16 | – | – | – | – |
| CNCC#Cc1ccc(OCCCc2sc(N(CCCO)c3cc(C)c(Nc4nc5ccccc5s4)nn3)nc2C(=O)O)c(F)c1 [P45, 2-[[6-(1,3-Benzothiazol-2-ylamino)-5-methyl-pyridazin-3-yl]-(3-hydroxypropyl)amino]-5-[3-[2-fluoro-4-[3-(methylamino)prop-1-ynyl]phenoxy]propyl]thiazole-4-carboxylic acid] | 3.11 | 4.01 | 3.56 | 17 | 16.8 | 16.9 | – | – | – | – | – | – | – |
| Cc1c(Nc2nc3ccccc3s2)nnc2c1CCCN2c1ccc(-c2cnn(CC34CC5(C)CC(C)(C3)CC(OCCN3CCN(C)CC3)(C5)C4)c2C)c(C(=O)O)n1 [P20, 6-[3-(1,3-benzothiazol-2-ylamino)-4-methyl-6,7-dihydro-5H-pyrido[2,3-c]pyridazin-8-yl]-3-[1-[[3,5-dimethyl-7-[2-(4-methylpiperazin-1-yl)ethoxy]-1-adamantyl]methyl]-5-methyl-pyrazol-4-yl]pyridine-2-carboxylic acid] | 0.02 | 0.08 | 0.05 | 0.38 | 0.24 | 0.31 | 0.36 | 0.5 | 0.43 | – | – | – | – |
| Cc1c(Nc2nc3ccccc3s2)nnc2c1CCCN2c1nc(C(=O)O)c(CCCOc2ccc(C#CCN3CCN(C)CC3)cc2F)s1 [P10, 2-[3-(1,3-Benzothiazol-2-ylamino)-4-methyl-6,7-dihydro-5H-pyrido[2,3-c]pyridazin-8-yl]-5-[3-[2-fluoro-4-[3-(4-methylpiperazin-1-yl)prop-1-ynyl]phenoxy]propyl] thiazole-4-carboxylic acid] | – | 0.01 | 0.01 | 0.2 | 0.29 | 0.25 | 0.3 | 0.8 | 0.55 | <Cmin | – | – | – |
| Cc1c(Nc2nc3ccccc3s2)nnc2c1CCCN2c1ccc(-c2cnn(C[C@]34C[C@]5(C)C[C@](C)(C3)C[C@@](OCCNCCCCO)(C5)C4)c2C)c(C(=O)O)n1 [P22, 6-[3-(1,3-benzothiazol-2-ylamino)-4-methyl-6,7-dihydro-5H-pyrido[2,3-c]pyridazin-8-yl]-3-[1-[[3-[2-(4-hydroxybutylamino)ethoxy]-5,7-dimethyl-1-adamantyl]methyl]-5-methyl-pyrazol-4-yl]pyridine-2-carboxylic acid] | 0.26 | 0.5 | 0.38 | 0.45 | 0.26 | 0.36 | 0.77 | 0.79 | 0.78 | – | – | – | – |
| Cc1c(Nc2nc3ccccc3s2)nnc2c1CCCN2c1nc(C(=O)O)c(CCCOc2ccc(C#CC(C)N3CCN(C)CC3)cc2F)s1 (stereo not drawn) [P8, 2-[3-(1,3-Benzothiazol-2-ylamino)-4-methyl-6,7-dihydro-5H-pyrido[2,3-c]pyridazin-8-yl]-5-[3-[2-fluoro-4-[3-(4-methylpiperazin-1-yl)but-1-ynyl]phenoxy]propyl]thiazole-4-carboxylic acid] | 0.02 | 0.03 | 0.02 | 0.69 | 0.41 | 0.55 | 0.7 | 1.8 | 1.25 | – | – | – | – |
| CNCC#Cc1ccc(OCCCc2sc(N(CCC(O)CO)c3cc(C)c(Nc4nc5ccccc5s4)nn3)nc2C(=O)O)c(F)c1 (stereo not drawn) [P44, 2-[[6-(1,3-Benzothiazol-2-ylamino)-5-methyl-pyridazin-3-yl]-(3,4-dihydroxybutyl)amino]-5-[3-[2-fluoro-4-[3-(methylamino)prop-1-ynyl]phenoxy]propyl]thiazole-4-carboxylic acid] | 4.64 | 3.14 | 3.89 | 36 | 33.6 | 34.8 | – | – | – | – | – | – | – |
| Cc1c(Nc2nc3ccccc3s2)nnc2c1CCCN2c1ccc(-c2cnn(CC34CC5(C)CC(C)(CC(CCCNCC[C@H](O)CO)(C5)C3)C4)c2C)c(C(=O)O)n1 [P69, 6-[3-(1,3-benzothiazol-2-ylamino)-4-methyl-6,7-dihydro-5H-pyrido[2,3-c]pyridazin-8-yl]-3-[1-[[3-[3-[[(3S)-3,4-dihydroxybutyl]amino]propyl]-5,7-dimethyl-1-adamantyl]methyl]-5-methyl-pyrazol-4-yl]pyridine-2-carboxylic acid] | – | – | – | – | – | – | 3.78 | 5.56 | 4.67 | – | – | – | – |
| Cc1cc(N(C)c2nc(C(=O)O)c(CCCOc3ccc(C#CC[N+](C)(C)Cc4ccc(NC(=O)[C@H](CCCNC(N)=O)NC(=O)[C@@H](NC(=O)CCOCCN5C(=O)CC(C)C5=O)C(C)C)cc4)cc3F)s2)nnc1Nc1nc2ccccc2s1 (stereo partly drawn) [Ab C - L9A-P2] | – | – | – | – | – | – | – | – | – | – | 4.2 | 7 | 5.6 |
| Cc1c(Nc2nc3ccccc3s2)nnc2c1CCCN2c1ccc(-c2cnn(CC34CC5(C)CC(C)(C3)CC(OCCN(C)CCC(=O)O)(C5)C4)c2C)c(C(=O)O)n1 [P70, 6-[3-(1,3-benzothiazol-2-ylamino)-4-methyl-6,7-dihydro-5H-pyrido[2,3-c]pyridazin-8-yl]-3-[1-[[3-[2-[2-carboxyethyl(methyl)amino]ethoxy]-5,7-dimethyl-1-adamantyl]methyl]-5-methyl-pyrazol-4-yl]pyridine-2-carboxylic acid] | – | – | – | – | – | – | 9.65 | 9.49 | 9.57 | – | – | – | – |
